A short description of the assay: Induction of rat oligodendrocyte progenitor cells differentiation assessed as myelin basic protein expression level. Format: functional.

The EC50 is the midpoint of the concentration-response curve. Consider `CN1c2cc(F)ccc2CC12CCN(CC1CCOCC1)CC2`, for which the EC50 was determined as 10 nM. On to `O=C1c2cc(C(F)(F)F)ccc2NC12CCN(CC1CCOCC1)CC2`, for which the EC50 was found to be 3.2 nM.

Regarding `FC(F)(F)c1ccc2c(c1)N(CC1CCOCC1)C1(CCN(CC3CCOCC3)CC1)C2`, the EC50 was 13 nM. As for `COC1(CN2CCC3(CC2)Cc2ccc(C(F)(F)F)cc2N3C)CCOCC1`, the EC50 was 54 nM. With `CN1c2ccc(C(F)(F)F)cc2C(=O)C12CCN(CC1CCOCC1)CC2` the figure was 9.3 nM; with `FC(F)(F)c1ccc2c(c1)CC1(CCN(CC3CCOCC3)CC1)N2`, 240 nM; with `CN1c2cc(C(F)(F)F)ccc2CC12CCN(CC1CCC(F)(F)CC1)CC2`, 4.7 nM.

As for `CN1c2cc(C(F)(F)F)ccc2CC12CCN(CC1CCOCC1)CC2`, the 50% effective concentration (EC50) is 1.9 nM.

Regarding `FC(F)(F)c1ccc2c(c1)N(Cc1ccccc1)C1(CCN(CC3CCOCC3)CC1)C2`, the EC50 was 3.7 nM.

With `CC(C)(C)OC(=O)CN1c2cc(C(F)(F)F)ccc2CC12CCN(CC1CCOCC1)CC2`, the EC50 stood at 15 nM. To `CN1c2ccc(C(F)(F)F)cc2CC12CCN(CC1CCOCC1)CC2` belongs 7100 nM; to `CC(=O)N1c2cc(C(F)(F)F)ccc2CC12CCN(CC1CCOCC1)CC2`, 60 nM; to `COCCN1CCC2(CC1)Cc1ccc(C(F)(F)F)cc1N2C`, 250 nM. With `O=C1c2ccc(C(F)(F)F)cc2NC12CCN(CC1CCOCC1)CC2` the figure was 54 nM. Consider `CN1c2cc(C(F)(F)F)ccc2CC12CCN(CC1(O)CCOCC1)CC2`, for which the EC50 turned out to be 5.8 nM.

With `COCCCN1CCC2(CC1)Cc1ccc(C(F)(F)F)cc1N2C`, the EC50 stood at 240 nM. With `CN(C)C(=O)CN1c2cc(C(F)(F)F)ccc2CC12CCN(CC1CCOCC1)CC2` the figure was 700 nM; with `CN1c2cc(C(F)(F)F)ccc2C(=O)C12CCN(CC1CCOCC1)CC2`, 1.4 nM. Take `CN1c2cc(Cl)ccc2CC12CCN(CC1CCOCC1)CC2`: the EC50 was found to be 19 nM. To `OCCN1c2cc(C(F)(F)F)ccc2CC12CCN(CC1CCOCC1)CC2` belongs 74 nM.

These data come from ChEMBL document CHEMBL4622937, “Design, synthesis, and biological evaluation of spiroindolines as novel inducers of oligodendrocyte progenitor cell differentiation-Use of a conformation-based hypothesis to facilitate compound design” (Bioorg Med Chem Lett, 2020).
